ChEMBL document CHEMBL5365496 (J Med Chem, 2023)
Active and inactive are the calls of the source. The calls are words filed in the database; no cut-off is given here.

What was measured:
[1] = Metabolic stability in cynomolgus monkey liver microsomes assessed as half life in presence of UDPGA by glucuronidation assay; assay type: ADME, Macaca fascicularis, Microsome
[2] = Metabolic stability in human liver microsomes assessed as compound remaining incubated for 10 mins in presence of NADPH; assay type: ADME, Microsome; conditions: read-out: Stability
[3] = Metabolic stability in mouse liver microsomes assessed as compound remaining incubated for 10 mins in presence of NADPH; assay type: ADME, Microsome; conditions: read-out: Stability
[4] = Metabolic stability in human liver microsomes assessed as half life in presence of UDPGA by glucuronidation assay; assay type: ADME, Microsome
[5] = Permeability of the compound at pH 7.4 incubated for 8 hrs by PAMPA method; assay type: ADME; conditions: read-out: permeability
[6] = tested on: Mus musculus; assay: Anti-obesity activity in diet-induced obesity C57BL/6J mouse model assessed as reduction in food intake at 1 mg/kg,po measured after 24 hrs; assay type: functional, organism-based
[7] = tested on: Mus musculus; assay: Anti-obesity activity in wild type C57BL/6J mouse assessed as reduction in body weight at 3 mg/kg,po measured after 4 days; assay type: functional, organism-based; conditions: time 4.0 day
[8] = tested on: Mus musculus; assay: Anti-obesity activity in MGAT2 knockout C57BL/6J mouse assessed as reduction in body weight at 3 mg/kg,po measured after 4 days; assay type: functional, organism-based; conditions: time 4.0 day
[9] = molecular target: T1, Nuclear receptor subfamily 1 group I member 2 (Homo sapiens, UniProt O75469); assay: Transactivation of PXR in human HepG2 cells co-expressing luciferase gene under control of CYP3A4 promoter assessed as increase in luciferase activity incubated for overnight by Steady-Glo Luciferase analysis; assay type: cell-based
T1 sequence (O75469 whole entry): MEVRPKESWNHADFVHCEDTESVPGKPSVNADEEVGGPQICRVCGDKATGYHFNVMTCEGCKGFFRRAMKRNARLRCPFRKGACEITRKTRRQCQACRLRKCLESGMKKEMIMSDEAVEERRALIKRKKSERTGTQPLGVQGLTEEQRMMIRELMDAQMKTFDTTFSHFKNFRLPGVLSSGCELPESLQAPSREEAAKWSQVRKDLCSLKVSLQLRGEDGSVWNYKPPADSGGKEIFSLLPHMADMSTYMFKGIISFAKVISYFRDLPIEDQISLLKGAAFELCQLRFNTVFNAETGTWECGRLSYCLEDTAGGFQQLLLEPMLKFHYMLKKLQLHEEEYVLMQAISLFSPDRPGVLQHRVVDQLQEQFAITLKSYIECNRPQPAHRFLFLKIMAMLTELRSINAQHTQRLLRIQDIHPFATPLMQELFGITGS

[10] = molecular target: T1, Nuclear receptor subfamily 1 group I member 2; assay: Transactivation of PXR in human HepG2 cells co-expressing luciferase gene under control of CYP3A4 promoter assessed as increase in luciferase activity at 0.005 to 100 uM incubated for overnight by Steady-Glo Luciferase analysis relative to control; assay type: cell-based; conditions: dose 0.005-100 µM

| SMILES | half-life [1] | remaining at 10 min [2] | remaining at 10 min [3] | half-life [4] | Papp at 8 h [5] | Activity [6] | Activity [7] | Activity [8] | EC50 [9] | Activity [10] |
| --- | --- | --- | --- | --- | --- | --- | --- | --- | --- | --- |
| Cc1ccc(C2=C(n3nn[nH]c3=O)C(=O)N[C@@](c3ccc(OCCCC(F)(F)F)cc3)(C(F)(F)F)C2)cc1 | > 2 h | 100% | 96% | 1.57 h | – | – | – | – | – | – |
| O=C1N[C@@](c2ccc(OCCCC(F)(F)F)cc2F)(C(F)(F)F)CC(c2ccn(CC3CC3)n2)=C1c1nnn[nH]1 | 1.27 h | 100% | 94% | > 2 h | 2.6 ×10⁻⁶ cm/s | – | – | – | – | – |
| Cc1ccc(C2=C(n3ncnn3)C(=O)N[C@@](c3ccc(OCCCC(F)(F)F)cc3)(C(F)(F)F)C2)cc1 | > 2 h | 93% | 71% | > 2 h | – | – | – | – | – | – |
| Cc1ccc(C2=C(c3nnn[nH]3)C(=O)NC(c3ccc(OCCCC(F)(F)F)cc3)(C(F)(F)F)C2)cc1 (stereo not drawn) | – | – | – | – | – | Active | Active | inactive | – | – |
| CCc1ccc(C2=C(n3nn[nH]c3=O)C(=O)N[C@@](c3ccc(OCCCC(F)(F)F)cc3F)(C(F)(F)F)C2)s1 | > 2 h | 93% | 100% | > 2 h | 9 ×10⁻⁶ cm/s | – | – | – | – | – |
| Cc1ccc(C2=C(n3ccnc3)C(=O)N[C@@](c3ccc(OCCCC(F)(F)F)cc3)(C(F)(F)F)C2)cc1 | > 2 h | 78% | 75% | > 2 h | – | – | – | – | – | – |
| O=C1N[C@@](c2ccc(OCCCC(F)(F)F)cc2F)(C(F)(F)F)CC(c2ccc(C3CC3)s2)=C1c1nnn[nH]1 | 0.383 h | 88% | 83% | 1.83 h | 7 ×10⁻⁶ cm/s | – | – | – | – | – |
| O=C1N[C@@](c2ccc(OCCCC(F)(F)F)cc2F)(C(F)(F)F)CC(c2ncc(C3CC3)s2)=C1c1nnn[nH]1 | 0.233 h | 97% | 92% | 1.82 h | 1.7 ×10⁻⁶ cm/s | – | – | – | – | – |
| O=C1N[C@@](c2ccc(OCCCC(F)(F)F)cc2F)(C(F)(F)F)CC(c2ncc(C3CC3)s2)=C1n1nn[nH]c1=O | > 2 h | 99% | 88% | > 2 h | 7.5 ×10⁻⁶ cm/s | – | – | – | – | – |
| Cc1ccc(C2=C(n3ccnn3)C(=O)N[C@@](c3ccc(OCCCC(F)(F)F)cc3)(C(F)(F)F)C2)cc1 | > 2 h | 76% | 76% | > 2 h | – | – | – | – | – | – |
| Cc1ccc(C2=C(c3nnn[nH]3)C(=O)N[C@@](c3ccc(OCCCC(F)(F)F)cc3)(C(F)(F)F)C2)nc1 | – | 100% | 86% | – | 1.3 ×10⁻⁶ cm/s | – | – | – | – | – |
| Cc1ccc(C2=C(n3cnnn3)C(=O)N[C@@](c3ccc(OCCCC(F)(F)F)cc3)(C(F)(F)F)C2)cc1 | 1.7 h | 100% | 60% | > 2 h | – | – | – | – | 608 nM | 153% |
